Entries after “also recorded” stand apart in the source; their conditions may differ.
Key:
[1] = test system: MDA-MBA-231; assay: In vitro cytotoxic screening (MTT assay), MDA-MBA-231; type: cell-based, human; conditions: mean ± SD; for IC50: 24 h, MTT assay, MDA-MBA-231 cell line; for Selectivity index S1: S1 = IC50 (MCF-7)/IC50 (MDA-MBA-231)
Method: (§1) Cell lines were obtained from American Type Culture Collection, cells were cultured using DMEM (Invitrogen Life Technologies, Waltham, MA, USA) supplemented with 10% FBS (Hyclone, Logan, UT, USA), 10 µg/mL of insulin (Sigma, St. Louis, MO, USA), and 1% penicillin-streptomycin. […] At the end of the incubation, the cells were harvested and washed with PBS. 20 µL of MTT was added to each well and incubated for 2 h before 200 µL DMSO was added. The absorbance was measured on an ELISA reader (Multiskan EX, Lab systems, Waltham, MA, USA) at wavelength of 570 nm.
(§2) All assays were performed in triplicate. The results were expressed as mean ± SD (standard deviation) using Student’s t test.

[2] = test system: MCF-7; assay: In vitro cytotoxic screening (MTT assay), MCF-7; type: cell-based, human; conditions: for IC50: Homo sapiens, MCF7, MTT assay, 24 h, MCF-7 cell line; for IC50 / Selectivity index S2: mean ± SD; for Cell line selectivity: S1 > S2: more selective to MDA-MBA-231, S2 > S1: more selective to MCF-7; for Selectivity index S2: S2 = IC50 (MDA-MBA-231)/IC50 (MCF-7)
Method: as §1, §2

[3] = target: EGFR-TK (Homo sapiens, UniProt P00533); assay: EGFR inhibition assay (HT Scan EGFR kinase assay kit)
Chain of EGFR-TK (P00533 25-1210): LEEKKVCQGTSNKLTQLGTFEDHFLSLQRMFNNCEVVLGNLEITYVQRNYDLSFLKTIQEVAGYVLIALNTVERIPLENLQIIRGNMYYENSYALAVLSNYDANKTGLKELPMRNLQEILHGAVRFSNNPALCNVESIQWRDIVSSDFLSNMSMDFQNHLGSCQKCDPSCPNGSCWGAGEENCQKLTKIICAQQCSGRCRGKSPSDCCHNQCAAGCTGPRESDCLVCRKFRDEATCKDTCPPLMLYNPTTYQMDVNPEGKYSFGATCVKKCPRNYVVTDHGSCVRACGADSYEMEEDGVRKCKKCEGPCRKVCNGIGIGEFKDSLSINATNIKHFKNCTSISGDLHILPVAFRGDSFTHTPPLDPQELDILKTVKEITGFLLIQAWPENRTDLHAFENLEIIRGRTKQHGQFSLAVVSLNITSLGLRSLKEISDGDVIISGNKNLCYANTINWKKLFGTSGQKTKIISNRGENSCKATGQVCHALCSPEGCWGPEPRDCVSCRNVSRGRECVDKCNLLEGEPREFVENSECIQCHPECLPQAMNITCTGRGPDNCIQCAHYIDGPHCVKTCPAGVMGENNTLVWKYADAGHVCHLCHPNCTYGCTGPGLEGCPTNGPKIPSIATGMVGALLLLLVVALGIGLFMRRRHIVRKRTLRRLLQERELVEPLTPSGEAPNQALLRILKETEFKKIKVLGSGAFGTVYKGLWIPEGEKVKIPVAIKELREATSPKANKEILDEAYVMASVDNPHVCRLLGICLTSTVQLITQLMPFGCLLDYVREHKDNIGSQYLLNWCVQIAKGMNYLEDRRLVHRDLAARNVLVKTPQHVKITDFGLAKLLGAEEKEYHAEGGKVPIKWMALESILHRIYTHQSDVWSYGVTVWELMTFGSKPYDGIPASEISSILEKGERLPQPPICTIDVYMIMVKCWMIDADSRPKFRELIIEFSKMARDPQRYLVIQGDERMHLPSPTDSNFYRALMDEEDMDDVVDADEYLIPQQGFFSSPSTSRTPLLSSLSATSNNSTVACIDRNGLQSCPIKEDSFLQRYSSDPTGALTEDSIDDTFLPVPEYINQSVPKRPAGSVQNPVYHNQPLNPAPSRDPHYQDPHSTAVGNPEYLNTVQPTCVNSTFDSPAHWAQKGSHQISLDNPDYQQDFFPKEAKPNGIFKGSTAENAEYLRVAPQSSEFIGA
Method: EGFR kinase activity was measured by HT Scan EGFR kinase assay kits (Cell Signaling Technology, Danvers, MA, USA). The experiments were performed following the manufacturer’s directions. […] Strapavidin-coated 96-well plates were used to take phosphorylated substrate. Anti-phosphotyrosine and europium-labeled secondary antibodies (DELFIA, Perkin-Elmer, Akron, OH, USA) were used to monitor the level of phosphorylation.

SMILES: Cc1ccc(C=Nn2c(-c3ccc(F)cc3)nc3ccc(F)cc3c2=O)cc1 [Compound 10b, 3-(4-Methylbenzylideneamino)-6-fluoro-2-(4-fluorophenyl)quinazoline-4(3H)-one]
- melting point: 231 to 233 °C
- IC50 ([1]; Homo sapiens): 3.09 ± 0.08 µM
- Selectivity index S1 [1]: 1.64 ± 0.21
- IC50 [2]: 5.07 ± 0.33 µM
- Cell line selectivity [2]: more selective to MDA-MBA-231 than MCF-7; also recorded: MDA-MBA-231 selective
- Selectivity index S2 [2]: 0.61 ± 0.06

SMILES: COc1ccc(C=Nn2c(-c3ccc(F)cc3)nc3ccc(F)cc3c2=O)cc1 [Compound 10c, 3-(4-Methoxybenzylideneamino)-6-fluoro-2-(4-fluorophenyl)quinazolin-4(3H)-one]
- melting point: 228 to 230 °C
- IC50 ([1]; Homo sapiens): 1.09 ± 0.01 µM
- Selectivity index S1 [1]: 9.57 ± 0.11
- IC50 [2]: 10.4 ± 1.14 µM
- Cell line selectivity [2]: more selective to MDA-MBA-231 than MCF-7; also recorded: MDA-MBA-231 selective
- Selectivity index S2 [2]: 0.10 ± 0.13

SMILES: O=c1c2cc(F)ccc2nc(-c2ccc(F)cc2)n1N=Cc1ccccc1 [Compound 10a, 3-(Benzylideneamino)-6-fluoro-2-(4-fluorophenyl)quinazolin-4(3H)-one]
- melting point: 218 to 220 °C
- IC50 ([1]; Homo sapiens): 2.48 ± 0.17 µM
- Selectivity index S1 [1]: 0.39 ± 0.01
- IC50 [2]: 0.95 ± 0.01 µM
- Cell line selectivity [2]: more selective to MCF-7 than MDA-MBA-231; also recorded: MCF-7 selective
- Selectivity index S2 [2]: 2.61 ± 0.09

SMILES: O=c1c2cc(F)ccc2nc(-c2ccc(F)cc2)n1N=Cc1ccc(O)cc1 [Compound 10g, 3-(4-Hydroxybenzylideneamino)-6-fluoro-2-(4-fluorophenyl) quinazolin-4(3H)-one]
- melting point: 229 to 231 °C
- IC50 ([1]; Homo sapiens): 2.54 ± 0.23 µM
- Selectivity index S1 [1]: 0.52 ± 0.07
- IC50 [2]: 1.32 ± 0.08 µM
- Cell line selectivity [2]: more selective to MCF-7 than MDA-MBA-231; also recorded: MCF-7 selective
- Selectivity index S2 [2]: 1.92 ± 0.05

SMILES: O=c1c2cc(F)ccc2nc(-c2ccc(F)cc2)n1N=Cc1ccc(F)cc1 [Compound 10d, 3-(4-Fluorobenzylideneamino)-6-fluoro-2-(4-fluorophenyl)quinazolin-4(3H)-one]
- melting point: 232 to 234 °C
- IC50 ([1]; Homo sapiens): 0.382 ± 0.01 µM
- IC50 [1]: 0.38 ± 0.01 µM
- Selectivity index S1 [1]: 2.34 ± 0.05
- IC50 [2]: 0.89 ± 0.02 µM
- Cell line selectivity [2]: more selective to MDA-MBA-231 than MCF-7; also recorded: MDA-MBA-231 selective
- Selectivity index S2 [2]: 0.43 ± 0.09

SMILES: O=c1c2cc(F)ccc2nc(-c2ccc(F)cc2)n1N=Cc1ccc([N+](=O)[O-])cc1 [Compound 10e, 3-(4-Nitrobenzylideneamino)-6-fluoro-2-(4-fluorophenyl)quinazolin-4(3H)-one]
- melting point: 235 to 237 °C
- IC50 [3]: 0.17008 ± 2e-05 µM
- Selectivity index S1 [1]: 9.32 ± 0.08
- IC50 [2]: 2.61 ± 0.14 µM
- Cell line selectivity [2]: more selective to MDA-MBA-231 than MCF-7; also recorded: MDA-MBA-231 selective
- Selectivity index S2 [2]: 0.11 ± 0.17

SMILES: O=c1c2cc(F)ccc2nc(-c2ccc(F)cc2)n1N=Cc1ccc(Cl)cc1 [Compound 10f, 3-(4-Chlorobenzylideneamino)-6-fluoro-2-(4-fluorophenyl)quinazolin-4(3H)-one]
- melting point: 224 to 226 °C
- IC50 ([1]; Homo sapiens): 3.76 ± 0.22 µM
- Selectivity index S1 [1]: 9.57 ± 0.22
- IC50 [2]: 0.71 ± 0.01 µM
- Cell line selectivity [2]: more selective to MCF-7 than MDA-MBA-231; also recorded: MCF-7 selective
- Selectivity index S2 [2]: 5.29 ± 0.31

SMILES: O=c1c2cc(F)ccc2nc(-c2ccc(F)cc2)n1N=Cc1ccco1 [Compound 7, 3-((Furan-2-yl)methyleneamino)-6-fluoro-2-(4-fluorophenyl)quinazolin-4(3H)-one]
- melting point: 228 to 230 °C
- IC50 ([1]; Homo sapiens): 0.94 ± 0.07 µM
- Selectivity index S1 [1]: 1.13 ± 0.09
- IC50 [2]: 1.06 ± 0.03 µM
- Cell line selectivity [2]: more selective to MDA-MBA-231 than MCF-7; also recorded: MDA-MBA-231 selective
- Selectivity index S2 [2]: 0.89 ± 0.18

SMILES: O=c1c2cc(F)ccc2nc(-c2ccc(F)cc2)n1N=CC=Cc1ccccc1 [Compound 8, 3-(3-Phenylallylideneamino)-6-fluoro-2-(4-fluorophenyl)quinazolin-4(3H)-one]
- melting point: 220 to 222 °C
- IC50 ([1]; Homo sapiens): 21.6 ± 1.4 µM
- Selectivity index S1 [1]: 1.69 ± 0.15
- IC50 [2]: 36.6 ± 1.81 µM
- Cell line selectivity [2]: more selective to MDA-MBA-231 than MCF-7; also recorded: MDA-MBA-231 selective
- Selectivity index S2 [2]: 0.59 ± 0.02

SMILES: O=C1Nc2ccccc2/C1=N\n1c(-c2ccc(F)cc2)nc2ccc(F)cc2c1=O [Compound 6, 3-(3-Iminoindolin-2-one)-6-fluoro-2-(4-flurophenyl)quinazoline-4(3H)-one]
- melting point: 223 to 225 °C
- IC50 [3]: 0.0752 ± 8e-05 µM
- IC50 ([1]; Homo sapiens): 1.38 ± 0.14 µM
- Selectivity index S1 [1]: 0.25 ± 0.06
- IC50 [2]: 0.35 ± 0.01 µM
- Cell line selectivity [2]: more selective to MCF-7 than MDA-MBA-231; also recorded: MCF-7 selective
- Selectivity index S2 [2]: 3.94 ± 0.26
